Measured values from BindingDB's records for doi:10.1046/j.1460-9568.2003.02744.x (University of Innsbruck, 2003).

Key:
[1] = target: Kappa-type opioid receptor (Rattus norvegicus, UniProt P34975)
[2] = target: Delta-type opioid receptor (Rattus norvegicus, UniProt P33533)
Mu-type opioid receptor = Mu-type opioid receptor (Rattus norvegicus, UniProt P33535)
Mu-type opioid receptor, sequence (P33535 whole entry): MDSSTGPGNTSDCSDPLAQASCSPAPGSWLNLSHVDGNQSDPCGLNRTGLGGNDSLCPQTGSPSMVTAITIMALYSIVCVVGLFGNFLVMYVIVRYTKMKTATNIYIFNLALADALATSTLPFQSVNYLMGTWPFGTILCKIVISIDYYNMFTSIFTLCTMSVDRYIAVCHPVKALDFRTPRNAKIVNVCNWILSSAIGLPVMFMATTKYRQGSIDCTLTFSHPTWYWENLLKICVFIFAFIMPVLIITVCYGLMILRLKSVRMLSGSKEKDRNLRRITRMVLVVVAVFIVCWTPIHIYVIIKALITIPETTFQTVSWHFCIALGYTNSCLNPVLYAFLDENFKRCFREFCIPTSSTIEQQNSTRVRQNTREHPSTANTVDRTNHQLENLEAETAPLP

Delta-type opioid receptor, sequence (P33533 whole entry): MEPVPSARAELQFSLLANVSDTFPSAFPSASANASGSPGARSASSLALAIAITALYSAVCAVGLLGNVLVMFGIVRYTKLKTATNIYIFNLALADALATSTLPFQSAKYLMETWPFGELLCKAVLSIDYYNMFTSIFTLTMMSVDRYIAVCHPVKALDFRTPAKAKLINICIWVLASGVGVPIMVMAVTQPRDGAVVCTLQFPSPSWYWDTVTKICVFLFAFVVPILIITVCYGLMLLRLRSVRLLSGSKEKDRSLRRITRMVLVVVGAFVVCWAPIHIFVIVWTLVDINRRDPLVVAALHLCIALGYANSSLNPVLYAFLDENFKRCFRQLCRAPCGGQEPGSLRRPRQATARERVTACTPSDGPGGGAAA
Kappa-type opioid receptor, sequence (P34975 whole entry): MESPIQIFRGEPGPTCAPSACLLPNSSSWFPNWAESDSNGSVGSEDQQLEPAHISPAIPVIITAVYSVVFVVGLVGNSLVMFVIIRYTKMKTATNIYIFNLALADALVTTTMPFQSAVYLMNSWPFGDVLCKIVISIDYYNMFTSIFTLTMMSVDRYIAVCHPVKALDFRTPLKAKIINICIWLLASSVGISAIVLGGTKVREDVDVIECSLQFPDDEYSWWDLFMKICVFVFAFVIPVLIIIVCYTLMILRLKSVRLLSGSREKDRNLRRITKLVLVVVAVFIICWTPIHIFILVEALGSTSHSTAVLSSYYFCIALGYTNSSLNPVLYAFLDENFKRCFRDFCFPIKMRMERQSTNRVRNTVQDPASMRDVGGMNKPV

Row | SMILES | Ki [1] [nM] | Ki [2] [nM] | Ki (Mu-type opioid receptor) [nM]
1 | Oc1ccc2c3c1OC1c4[nH]c5c(c4CC4(O)CN(CCC314)C(C1CC1)C2)CC1(O)CN2CCC13c1c(ccc(O)c1OC53)CC2C1CC1 (stereo unspecified) [CAS_105618-26-6] | 38.8 |  | 
2 | CCO[C@@]12Cc3c([nH]c4ccccc34)[C@]3(C)Oc4c(O)ccc5c4[C@@]31CCN(CC1CC1)C2C5 [HS-378] |  | 528 | 
3 | COC12CCC(=O)C3(C)Oc4c(O)ccc5c4C31CCN(C)C2C5 (stereo unspecified) [NSC_125489] | 25.2 |  | 0.48
4 | COc1cccc2c1C13CCN(CC4CC4)C(C2)C1(OC)CCC(=O)C3 (stereo unspecified) [NSC_3081671] |  |  | 15.1
5 | CC(C)[C@H](NC(=O)[C@H](CCC(=O)O)NC(=O)[C@H](Cc1ccccc1)NC(=O)[C@@H](C)NC(=O)[C@@H](N)Cc1ccc(O)cc1)C(=O)N[C@H](C(=O)NCC(N)=O)C(C)C [Tyr-D-Ala-Phe-Glu-Val-Val-GlyNH2] |  | 48.3 | 
